One assay deals with MCF7 cells. Briefly: Cell proliferation, MTT assay. The assay is classed as cell-based. The note with it: MCF7 cells. On the procedure: Cell proliferation was assessed by MTT assay.
Cell viability was measured by MTT assay and the half maximal inhibitory concentration (IC50) was calculated using GraphPad Prism. Triplicates were performed for each sample and medium alone was used as a blank.
The anti-proliferative effects of PAK1 degradation and inhibition were evaluated.
Background: Tetrazolium dyes change colour on reduction, which living cells bring about.

A further assay has as its system OVCAR3 cells. Kind of assay: Cell proliferation, MTT assay. The assay is classed as cell-based. The settings on record: OVCAR3 cells. The procedure:
[…]. Cell proliferation was assessed by MTT assay. […].
Cells were plated at 2×10^3 cells per well in 96-well plates overnight and treated with various concentrations of Pak degraders for 72 hours. Cell viability was measured by MTT assay and the half maximal inhibitory concentration (IC50) was calculated using GraphPad Prism. Triplicates were performed for each sample and medium alone was used as a blank.
The anti-proliferative effects of PAK1 degradation and inhibition were evaluated. […]. […] […]. […] […].

In assay [1] the target is T1, PAK1 (Homo sapiens, UniProt Q13153). Briefly: PAK1 degradation in MCF7 and OVCAR3 cells, immunoblot. The assay is classed as cell-based. The arrangement: endogenous in cells; host or cells: MCF7, OVCAR3. The settings on record: MCF7 and OVCAR3 cells. The procedure: Protein lysates were harvested at the times specified.
Cell lysates were obtained by centrifugation at 13,500 rpm for 15 minutes at 4° C. BCA protein assay (Thermo Scientific) was used to determine protein concentration then equal amounts of total proteins were separated by SDS-PAGE (Bio-Rad) and transferred to PVDF membrane (Thermo Scientific) at 100V for 2 hours. Membranes were blocked in 5% (w/v) non-fat dry milk in tris-buffered saline with 0.1% Tween-20 (TBS-T) for 1 hour and incubated with primary antibody at 4° C. for overnight. Membranes were washed with TBS-T on the next day and incubated with HRP-conjugated secondary antibodies (Millipore) at room temperature for 1 hour and exposed to films after washing.
Target sequence in this assay (Q13153 whole entry): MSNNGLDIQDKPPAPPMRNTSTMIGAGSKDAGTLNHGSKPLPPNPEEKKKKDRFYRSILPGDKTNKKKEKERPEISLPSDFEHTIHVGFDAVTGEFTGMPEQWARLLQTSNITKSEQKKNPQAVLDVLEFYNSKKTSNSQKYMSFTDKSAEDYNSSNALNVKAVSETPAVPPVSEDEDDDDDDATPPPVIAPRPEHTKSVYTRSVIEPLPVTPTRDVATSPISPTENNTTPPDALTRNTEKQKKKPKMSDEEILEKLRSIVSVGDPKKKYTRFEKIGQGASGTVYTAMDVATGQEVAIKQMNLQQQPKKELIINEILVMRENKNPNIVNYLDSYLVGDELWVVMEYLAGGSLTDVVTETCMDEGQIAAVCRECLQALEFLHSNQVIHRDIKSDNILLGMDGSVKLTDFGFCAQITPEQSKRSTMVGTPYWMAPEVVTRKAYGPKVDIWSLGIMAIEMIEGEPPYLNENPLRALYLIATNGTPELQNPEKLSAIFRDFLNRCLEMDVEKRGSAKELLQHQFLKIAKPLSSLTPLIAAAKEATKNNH
For orientation: In western blotting, separated proteins are transferred to a membrane and probed.

In assay [2] the target is T2, PAK2 (Homo sapiens, UniProt Q13177). Kind of assay: PAK2 degradation in MCF7 and OVCAR3 cells, immunoblot. The assay is classed as cell-based. The arrangement: due to their high expression of both PAK1 and PAK2; endogenous in cells; host or cells: MCF7, OVCAR3. The procedure: […]. Cells were incubated overnight then treated with various concentrations of Pak degraders alone or together with bortezomib or lenalidomide for 24 hours. Protein lysates were harvested at the times specified.
T2 sequence (Q13177 whole entry): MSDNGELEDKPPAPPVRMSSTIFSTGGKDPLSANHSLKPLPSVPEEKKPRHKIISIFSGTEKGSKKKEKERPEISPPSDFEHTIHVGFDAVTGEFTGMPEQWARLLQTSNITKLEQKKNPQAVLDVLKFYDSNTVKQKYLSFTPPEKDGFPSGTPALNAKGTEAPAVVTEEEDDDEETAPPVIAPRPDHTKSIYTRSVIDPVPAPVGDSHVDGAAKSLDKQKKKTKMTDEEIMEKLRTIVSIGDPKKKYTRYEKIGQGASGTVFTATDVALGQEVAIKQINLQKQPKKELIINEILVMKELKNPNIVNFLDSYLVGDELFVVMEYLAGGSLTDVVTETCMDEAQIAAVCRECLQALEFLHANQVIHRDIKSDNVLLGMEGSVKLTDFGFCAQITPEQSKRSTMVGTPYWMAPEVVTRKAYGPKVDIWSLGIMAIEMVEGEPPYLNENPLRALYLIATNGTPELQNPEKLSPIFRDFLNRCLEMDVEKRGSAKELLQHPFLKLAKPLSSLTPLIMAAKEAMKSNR
Cells were washed once in PBS and lysed in RIPA buffer (50 mM Tris-HCl, 150 mM NaCl, 0.25% (w/v) sodium deoxycholate, 1% (w/v) NP-40, pH 7.5) containing protease inhibitor cocktail (Roche) and phosphatase inhibitor cocktail (Roche) for 30 minutes on ice. Cell lysates were obtained by centrifugation at 13,500 rpm for 15 minutes at 4° C. BCA protein assay (Thermo Scientific) was used to determine protein concentration then equal amounts of total proteins were separated by SDS-PAGE (Bio-Rad) and transferred to PVDF membrane (Thermo Scientific) at 100V for 2 hours. Membranes were blocked in 5% (w/v) non-fat dry milk in tris-buffered saline with 0.1% Tween-20 (TBS-T) for 1 hour and incubated with primary antibody at 4° C. for overnight. […]
After verifying that BJG-05-039 retained specificity for PAK1, its degradation activity in cells was characterized. First, the PAK1 degrader was evaluated in the breast cancer cell line MCF7 and the ovarian cancer cell line OVCAR3 due to their high expression of both PAK1 and PAK2 and their known dependence on PAK1 (Prudnikova, et al. (2016) Oncogene 35:2178-2185; Shrestha, et al. (2012) Oncogene 31:3397-3408). […]

The next assay concerns the target PAK4 (Homo sapiens, UniProt O96013). Kind of assay: Z'-LYTE FRET kinase inhibition assay. It counts as biochemical. The arrangement: purchased Invitrogen. The text has this:
[…]. […] […].

Assay [3] deals with T2, PAK2. Briefly: Z'-LYTE FRET kinase inhibition assay. It counts as biochemical. The arrangement: PAK2 (full length); purchased Invitrogen PV4565. On the procedure:
The activity/inhibition of human recombinant PAK1 (kinase domain) or PAK2 (full length) was determined by measuring the phosphorylation of a FRET peptide substrate (Ser/Thr19) labeled with Coumarin and Fluorescein using Z′-LYTE™ assay (Invitrogen). The 10 μL assay mixtures contained 50 mM HEPES (pH 7.5), 0.01% Brij-35, 10 mM MgCl2, 1 mM EGTA, 2 μM FRET peptide substrate, and PAK enzyme (20 pM PAK1; 50 pM PAK2). Incubations were carried out at 22° C. in black polypropylene 384-well plates (Corning Costar). Prior to the assay, enzyme, FRET peptide substrate and serially diluted test compounds were preincubated together in assay buffer (7.5 μL) for 10 minutes, and the assay was initiated by the addition of 2.5 μL assay buffer containing 4×ATP (160 μM PAK1; 480 μM PAK2). Following the 60-minute incubation, the assay mixtures were quenched by the addition of 5 μL of Z′-LYTE™ development reagent, and 1 hour later the emissions of Coumarin (445 nm) and Fluorescein (520 nm) were determined after excitation at 400 nm using an Envision plate reader (Perkin Elmer). […].

Assay [4] deals with T1, PAK1. Kind of assay: Z'-LYTE FRET kinase inhibition assay. It counts as biochemical. On the set-up: human recombinant PAK1 (kinase domain); purchased Invitrogen PV2830. The settings on record: for PAK1 inhibitory activity and selectivity of conjugate: vs PAK2 and PAK4. The procedure: The activity/inhibition of human recombinant PAK1 (kinase domain) or PAK2 (full length) was determined by measuring the phosphorylation of a FRET peptide substrate (Ser/Thr19) labeled with Coumarin and Fluorescein using Z′-LYTE™ assay (Invitrogen). The 10 μL assay mixtures contained 50 mM HEPES (pH 7.5), 0.01% Brij-35, 10 mM MgCl2, 1 mM EGTA, 2 μM FRET peptide substrate, and PAK enzyme (20 pM PAK1; 50 pM PAK2). Incubations were carried out at 22° C. in black polypropylene 384-well plates (Corning Costar). […] Following the 60-minute incubation, the assay mixtures were quenched by the addition of 5 μL of Z′-LYTE™ development reagent, and 1 hour later the emissions of Coumarin (445 nm) and Fluorescein (520 nm) were determined after excitation at 400 nm using an Envision plate reader (Perkin Elmer).
Target sequence in this assay (Q13153 270-521 limits assumed): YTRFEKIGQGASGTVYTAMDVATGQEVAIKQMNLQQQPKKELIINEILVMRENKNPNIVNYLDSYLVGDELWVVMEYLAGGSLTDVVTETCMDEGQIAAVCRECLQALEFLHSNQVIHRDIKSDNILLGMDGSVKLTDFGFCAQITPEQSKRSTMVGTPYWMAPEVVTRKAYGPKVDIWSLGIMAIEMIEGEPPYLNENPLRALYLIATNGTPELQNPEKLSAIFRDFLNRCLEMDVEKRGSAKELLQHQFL

Chain of PAK4 (O96013 whole entry): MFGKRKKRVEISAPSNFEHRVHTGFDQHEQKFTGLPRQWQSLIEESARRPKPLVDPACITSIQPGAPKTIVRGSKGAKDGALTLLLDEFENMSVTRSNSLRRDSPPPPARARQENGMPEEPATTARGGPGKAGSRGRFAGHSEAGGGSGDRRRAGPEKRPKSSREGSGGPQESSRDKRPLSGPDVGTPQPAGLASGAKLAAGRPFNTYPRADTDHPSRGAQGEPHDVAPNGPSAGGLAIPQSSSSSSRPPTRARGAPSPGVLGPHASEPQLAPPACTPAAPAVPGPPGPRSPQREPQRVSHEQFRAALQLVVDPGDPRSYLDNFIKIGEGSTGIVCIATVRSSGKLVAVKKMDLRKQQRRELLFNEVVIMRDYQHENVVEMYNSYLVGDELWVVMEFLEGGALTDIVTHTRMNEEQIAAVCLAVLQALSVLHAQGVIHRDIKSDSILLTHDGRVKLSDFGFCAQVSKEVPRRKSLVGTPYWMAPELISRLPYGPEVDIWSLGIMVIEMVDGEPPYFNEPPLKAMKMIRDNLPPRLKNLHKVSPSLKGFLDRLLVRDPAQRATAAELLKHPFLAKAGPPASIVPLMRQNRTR

As to `Nc1cccc2c1CN(C1CCC(=O)NC1=O)C2=O` (centres unmarked) [lenalidomide, reference compound], the “Effect on cell proliferation” value in the assay on MCF7 cells and in the assay on OVCAR3 cells was “lacked significant antiproliferative effects” in each case.

As to `CN1C(=O)CCC(N2C(=O)c3cccc(NCCCCCCCCNC(=O)N4CC[C@H](NC5=Nc6cc(F)ccc6N(CC(F)F)c6ccc(Cl)cc65)C4)c3C2=O)C1=O` (stereo partly drawn) [BJG-05-098, (3S)-3-((2-Chloro-5-(2,2-difluoroethyl)-8-fluoro-5H-dibenzo[b,e][1,4]diazepin-11-yl)amino)-N-(8-((2-(J-methyl-2,6-dioxopiperidin-3-yl)-1,3-dioxoisoindolin-4-yl)amino)octyl)pyrrolidine-1-carboxamide], the “Effect on cell proliferation” value in the assay on MCF7 cells and in the assay with OVCAR3 cells was “did not affect cell proliferation” each time. For the same molecule, on PAK1 [1], the PAK1 degradation entry is recorded as “PAK1 degradation was not observed”. In addition, the PAK2 degradation result at PAK2 [2] was “did not induce degradation of PAK1 or PAK2”.

For orientation: IC50 means the concentration needed to halve the response being measured. On to `O=C1CCC(N2C(=O)c3cccc(NCCCC(=O)N4CC[C@H](NC5=Nc6cc(F)ccc6N(CC(F)F)c6ccc(Cl)cc65)C4)c3C2=O)C(=O)N1` (some centres unmarked) [BJG-05-019], for which the IC50 at PAK4 was above 10000 nM; at PAK2 [3], above 10000 nM; at PAK1 [4], 6300 nM.

Take `Cc1ccc(CO)cc1N(Cc1ccccc1C#N)c1nc(Nc2ccc(N3CCN(C(=O)CCOCCOCCNc4cccc5c4C(=O)N(C4CCC(=O)NC4=O)C5=O)CC3)c(S(C)(=O)=O)c2)ncc1F` (centres unmarked) [BJG-05-094, 2-(((2-((4-(4-(3-(2-(2-((2-(2,6-Dioxopiperidin-3-yl)-1,3-dioxoisoindolin-4-yl)amino)ethoxy)ethoxy)propanoyl)piperazin-1-yl)-3-(methylsulfonyl)phenyl)amino)-5-fluoropyrimidin-4-yl)(5-(hydroxymethyl)-2-methylphenyl)amino)methyl)benzonitrile]: the IC50 on PAK1 [4] is 103 nM.

As for `O=C1CCC(N2C(=O)c3cccc(NCCOCCOCCNC(=O)N4CC[C@H](NC5=Nc6cc(F)ccc6N(CC(F)F)c6ccc(Cl)cc65)C4)c3C2=O)C(=O)N1` (some centres unmarked) [BJG-05-022], the IC50 amounted to 3860 nM against PAK4, 6750 nM against PAK2 [3] and 1490 nM on PAK1 [4].

For `O=C(COc1cccc2c1C(=O)N(C1CCC(=O)NC1=O)C2=O)NCCCCCCC(=O)N1CC[C@H](NC2=Nc3cc(F)ccc3N(CC(F)F)c3ccc(Cl)cc32)C1` (some centres unmarked) [BJG-05-018], the IC50 is above 10000 nM against PAK4, above 10000 nM against PAK2 [3] and above 3330 nM at PAK1 [4].

`O=C1CCC(N2C(=O)c3cccc(NCCCCCNC(=O)N4CC[C@H](NC5=Nc6cc(F)ccc6N(CC(F)F)c6ccc(Cl)cc65)C4)c3C2=O)C(=O)N1` (some centres unmarked) [BJG-05-027]: the figures for the concentration for half-maximal inhibition (IC50) at PAK4, against PAK2 [3] and at PAK1 [4] were above 10000 nM, above 10000 nM and 594 nM, respectively. The “PAK1 inhibitory activity and selectivity of conjugate” value on PAK1 [4] is “retained PAK1 inhibitory activity and selectivity”.

For the molecule `Cc1ccc(CO)cc1N(Cc1ccccc1C#N)c1nc(Nc2ccc(N3CCN(CCOCCOCCNc4cccc5c4C(=O)N(C4CCC(=O)NC4=O)C5=O)CC3)c(S(C)(=O)=O)c2)ncc1F` (centres unmarked) [BJG-05-093, 2-(((2-((4-(4-(2-(2-(2-((2-(2,6-Dioxopiperidin-3-yl)-1,3-dioxoisoindolin-4-yl)amino)ethoxy)ethoxy)ethyl)piperazin-1-yl)-3-(methylsulfonyl)phenyl)amino)-5-fluoropyrimidin-4-yl)(5-(hydroxymethyl)-2-methylphenyl)amino)methyl)benzonitrile], the concentration for half-maximal inhibition (IC50) on PAK1 [4] came to 32.5 nM.

For `Cc1ccc(CO)cc1N(Cc1ccccc1C#N)c1nc(Nc2ccc(N3CCN(CCOCCOCCOCCOCCNc4cccc5c4C(=O)N(C4CCC(=O)NC4=O)C5=O)CC3)c(S(C)(=O)=O)c2)ncc1F` (centres unmarked) [BJG-05-095, 2-(((2-((4-(4-(14-((2-(2,6-Dioxopiperidin-3-yl)-1,3-dioxoisoindolin-4-yl)amino)-3,6,9,12-tetraoxatetradecyl)piperazin-1-yl)-3-(methylsulfonyl)phenyl)amino)-5-fluoropyrimidin-4-yl)(5-(hydroxymethyl)-2-methylphenyl)amino)methyl)benzonitrile], the IC50 at PAK1 [4] stood at 36.6 nM.

`O=C1CCC(N2C(=O)c3cccc(NCCCCCCC(=O)N4CC[C@H](NC5=Nc6cc(F)ccc6N(CC(F)F)c6ccc(Cl)cc65)C4)c3C2=O)C(=O)N1` (some centres unmarked) [BJG-05-017]: the IC50 on PAK4 is above 1000 nM; on PAK2 [3], above 3330 nM; at PAK1 [4] it was above 1110 nM.

`O=C1CCC(N2C(=O)c3cccc(NCCOCCOCCC(=O)N4CC[C@H](NC5=Nc6cc(F)ccc6N(CC(F)F)c6ccc(Cl)cc65)C4)c3C2=O)C(=O)N1` (some centres unmarked) [BJG-05-014]: the IC50 at PAK4 came out at 152 nM; at PAK2 [3], 724 nM; at PAK1 [4], 432 nM. Further, the “PAK1 inhibitory activity and selectivity of conjugate” value on PAK1 [4] was “retained PAK1 inhibitory activity and selectivity”.

As to `Cc1ncsc1-c1ccc([C@H](C)NC(=O)C2C[C@@H](O)CN2C(=O)[C@@H](NC(=O)CCCCCCCC(=O)N2CC[C@H](NC3=Nc4cc(F)ccc4N(CC(F)F)c4ccc(Cl)cc43)C2)C(C)(C)C)cc1` (some centres unmarked) [BJG-05-020], the IC50 against PAK4, at PAK2 [3] and at PAK1 [4] was above 10000 nM each time.

(Values after patent publication US20250312462A1, “PAK1 DEGRADERS AND METHODS OF USE THEREOF” (INSTITUTE FOR CANCER RESEARCH D/B/A THE RESEARCH INSTITUTE …, priority 2022, published 2025).)
